For one series, the system named is MES and scMet seizures. The series can be described thus: Anticonvulsant screening, ASP classification (MES and scMet tests) in mice, i.p. The class given is in vivo, mouse. Particulars: for ASP classification (Table 8): Table 8 comparison, titled MES Test, Rat, p.o.; for minimal effective dose: ip, i.p. mouse, read-out: ASP Group Classification.
The test system of series [1] is endogenous L-glutamate release. The series can be described thus: Ca2+ dependent, K+ evoked release of endogenous L-glutamate in cerebrocortical slices. It is filed as cell-based, guinea pig. Particulars: Cavia porcellus, means ± SEM, n = 4.
The subject of another series is PCF. Put plainly: Radioligand binding, PCP, [3H]TCP. The text has this: (§1) EAAs are known to play important roles in excitatory neurotransmission in partial seizures as discussed earlier. […] Thus, several aminoalkylpyridines of this invention are effective antagonists of NMDA-receptor mediated EAA neurotransmission and function as noncompetitive NMDA antagonists and thus can be used to advantage in epilepsy, stroke and Alzheimer's disease.
(§2) EAAs are known to play important roles in excitatory transmission in partial seizures as discussed earlier. In general, antieptileptic drugs effective against MES seizures alter ionic transport across excitable membranes [Porter, R. J., and Pitlick, W. H., In "Basic and Clinical Pharmacology", 4th Edn., B. G. Katzung, Ed., Appleton and Lange, CA 1989, pp. 287-303]. Based on this rationale, the aminoalkylpyridines may be expected to attenuate EAA neurotransmission. Indeed, evaluation of potential displacement activity of #2 at all inhibitory and excitatory amino acid receptor types and subtypes using appropriate radioligands, indicate that this aminoalkylpyridine inhibits at 10 μM concentration, 49% of the binding of [^3 H]DTG, a ligand highly specific for the σ (sigma) receptor population of the PCP receptors on the NMDA receptor-ionophore complex (Table 6).
(§3) Values are expressed as the percent inhibition of specific binding and […]

Another series concerns MK-801. The series can be described thus: Radioligand binding, MK-801, [3H]MK-801.
Text: as §1, §2, §3

The subject of the next series is Sigma. Put plainly: Radioligand binding, Sigma, [3H]DTG. Particulars: σ receptor population. The text has this: EAAs are known to play important roles in excitatory neurotransmission in partial seizures as discussed earlier.
EAAs are known to play important roles in excitatory transmission in partial seizures as discussed earlier.

The nature of series [2]: Rotorod ataxia test (neurotoxicity), mice, i.p. Particulars: mouse, in vivo, ip. The method, then:
Neurotoxicity is evaluated in mice by the rotorod ataxia test. The animal is placed on a wooden rod of 11/8" diameter rotating at 6 rpm. Normal mice can remain on a rod rotating at this speed indefinitely.

For series [3], the system named is maximal electroshock seizures. The series can be described thus: Maximal electroshock seizure (MES) test, anticonvulsant quantification in mice, i.p. Particulars: for ED50: Mus musculus, ip, read-out: ED50 MES; for P.I. MES (TD50/ED50): mice.
Protocol: Screening Methodology to Determine Anticonvulsant Activity: In mice, i.p.: All compounds are solubilized in 0.5% methylcellulose. […] The compounds are administered intraperitoneally in a volume of 0.01 ml/gm to male Carworth Farms #1 mice weighing about 20 gm. All compounds are tested at least at three dose levels (30, 100 an 300 mg/kg) at 30 minutes and 4 hours after their administration.
(§5) The Maximal Electroshock Seizure Test (MES): Maximal electroshock seizures are elicited with a 60 Hz alternating current of 50 mA intensity in mice and about 150 mA in rats (5-7 times that necessary to elicit minimal electroshock seizures), delivered for 0.2 sec via corneal electrodes. A drop of 0.9% saline is instilled in the eye prior to application of the electrodes in order to prevent the death of the animal. Abolition of the hind limb tonic extension component of the seizure is defined as protection and results are expressed as number of animals protected/number of animals tested.
Anticonvulsant Quantification in Mice, i.p.: The ED50 values are determined in the MES, scMet and rotorod ataxia test.
For series [4], the system named is maximal electroshock seizures. Put plainly: Maximal electroshock seizure (MES) test in the rat, p.o. Particulars: for responders at 50 mg/kg / ED50: Rattus norvegicus, po; for responders at 50 mg/kg: read-out: Percent protection at 50 mg/kg dose, p.o., in the MES Test in the rat; for ED50: read-out: ED50 MES.
Text: as §5
This species will be subject of the complete anticonvulsant quantification test evaluation as described above, but after oral (gavage) administration of the candidate compound.
Neurological deficit in rats is examined by the positional sense test and gait and stance test. […] Inability to do so rapidly indicates a neurologic deficit. In the gait and stance test, a neurologic deficit is indicated by a circular or zigzag gait, ataxia, abnormal spread of the legs, abnormal body posture, tremor, hyperactivity, lack of exploratory behavior, somnolence, stupor, or catalepsy.
Series [5] has as its system subcutaneous pentylenetetrazol seizures. The series can be described thus: Subcutaneous pentylenetetrazol (Metrazole) seizure threshold test (scMet), mice, i.p. It is filed as in vivo. Particulars: Mus musculus, ip. The method, then: (§4) The Subcutaneous Pentylenetetrazol (Metrazole) Seizure Threshold Test (scMet): A 0.5% solution of 85 mg/kg of pentylenetetrazol is administered subcutaneously in the posterior midline. The animal is observed for 30 minutes.

For series [6] the test system is unchanged. The series can be described thus: Subcutaneous pentylenetetrazol seizure threshold test (scMet), rat, p.o. The class given is in vivo, rat (Sprague-Dawley). Particulars: po. The procedure:
as §4

A further series in a line: in vivo. Details: species or system rat (Sprague-Dawley). Particulars: rat, po. The text has this: Inability to do so rapidly indicates a neurologic deficit.

Regarding `Cc1ccc(N2N=NCC2c2ccncc2)cc1` (stereo not drawn) [4-CH3, reference compound], the “ASP classification (Table 8)” value in the series on MES and scMet seizures was “II (Class II compounds show anticonvulsant activity at doses greater than 100 mg/kg or show activity at 100 mg/kg which is not reinforced by similar activity at 300 mg/kg)”.

Turning to `COc1ccc(N2N=NCC2c2ccncc2)cc1` (stereo not drawn) [4-OCH3, reference compound], the “ASP classification (Table 8)” value in the series on MES and scMet seizures was “III (Those failing to demonstrate anticonvulsant activity at doses up to 300 mg/kg are considered inactive)”.

`Clc1ccc(N2N=NCC2c2ccncc2)cc1` (stereo not drawn) [ADD17014, reference compound]: the activity at 50 µM was 136 ± 6% in series [1] (50 μM (K+), 30 mM K+, P < 0.001 vs K+ alone) and 101 ± 9% in series [1] (50 μM (basal)). The activity at 100 µM is 122 ± 5% in series [1] (100 μM (K+), 30 mM K+, P < 0.001 vs K+ alone) and 109 ± 4% in [1] (100 μM (basal)).

Consider `CC(Nc1ccc(Cl)c(Cl)c1)c1ccncc1` (stereo not drawn) [Compound 1, 1-(3,4-Dicloroanilino)-1-(4-pyridyl)-ethan], for which the “activity at the [3H]TCP-binding receptor sites / PCP receptors (in words)” value with PCF is given as “no activity”. For the same compound, the “activity at the [3H]MK-801-binding receptor sites (in words)” value in the series on MK-801 is recorded as “no activity”. Besides, the minimal effective dose in the series with MES and scMet seizures is below 100 mg/kg. Besides, the “inhibition of the binding of [3H]DTG (in words)” value (“inhibition” below) in the series on Sigma is “inhibit selectively”.

For the compound `CC(Nc1cccc(Cl)c1)c1ccncc1` (stereo not drawn) [Compound 3, 1-(3-Chloroanilino)-1-(4-pyridyl)-ethan], the “activity at the [3H]TCP-binding receptor sites / PCP receptors (in words)” value in the series on PCF is recorded as “no activity”. In addition, the “activity at the [3H]MK-801-binding receptor sites (in words)” value in the series on MK-801 was “no activity”. In addition, the minimal effective dose with MES and scMet seizures was below 100 mg/kg. The compound further showed a TD50 in series [2] above 500 mg/kg. Further, in series [3], the ED50 was determined as 95.5 mg/kg and the “P.I. MES (TD50/ED50)” value was above 5.24. For the same compound, in the series on Sigma, the “inhibition” value is “inhibit selectively”. Moreover, in [4], the responders at 50 mg/kg lay within 50 to 75%. The median effective dose (ED50) in [5] is above 250 mg/kg.

`CC(Nc1ccc(Br)cc1)c1ccncc1` (stereo not drawn) [Compound 4, 1-(4-Bromoanilino)-1-(4-pyridyl)-ethan]: the “activity at the [3H]TCP-binding receptor sites / PCP receptors (in words)” value with PCF is given as “no activity”. Besides, the “activity at the [3H]MK-801-binding receptor sites (in words)” value in the series on MK-801 is “no activity”. Besides, the minimal effective dose with MES and scMet seizures is below 100 mg/kg. Besides, the TD50 in [2] was above 200 mg/kg; in “in vivo”, above 500 mg/kg. In addition, the ED50 in [3] was 62.7 mg/kg; in series [4], 20.9 mg/kg; in [6], above 250 mg/kg; in series [5], above 200 mg/kg. The “P.I. MES (TD50/ED50)” value was above 3.19 in [3] and above 23.93 in series [4] (rat, p.o.). For the same compound, in the series with Sigma, the “inhibition” value is listed as “inhibit selectively”. Besides, the responders at 50 mg/kg in [4] was in the range of 75 to 100%.

Turning to `CC(Nc1ccc(F)cc1)c1ccncc1` (stereo not drawn) [Compound 5, 1-(4-Fluoroanilino)-1-(4-pyridyl)-ethan], the “activity at the [3H]TCP-binding receptor sites / PCP receptors (in words)” value in the series with PCF is given as “no activity”. Also, in the series on MK-801, the “activity at the [3H]MK-801-binding receptor sites (in words)” value is on record as “no activity”. In addition, in the series with MES and scMet seizures, the minimal effective dose was below 100 mg/kg. Moreover, the TD50 is 141 mg/kg in [2] and above 500 mg/kg in the series “in vivo”. The median effective dose (ED50) was 57.4 mg/kg in [3], 81.1 mg/kg in series [4], above 250 mg/kg in series [6] and above 80 mg/kg in series [5]. The “P.I. MES (TD50/ED50)” value in series [3] is given as 2.46; in [4] (rat, p.o.), above 6.17. Further, in the series on Sigma, the “inhibition” value is “inhibit selectively”. Moreover, the responders at 50 mg/kg in [4] lay within 75 to 100%.

In the case of `Cc1ccc(NC(C)c2ccncc2)cc1` (stereo not drawn) [Compound 6, 1-(4-Methylanilino)-1-(4-pyridyl)-ethan], the “activity at the [3H]TCP-binding receptor sites / PCP receptors (in words)” value in the series on PCF is reported as “no activity”. Also, the “activity at the [3H]MK-801-binding receptor sites (in words)” value with MK-801 was “no activity”. For the same compound, in the series on MES and scMet seizures, the “ASP classification (Table 8)” value is recorded as “I (They demonstrate anticonvulsant activity in either the MES test or the scMet test, or both at doses of 100 mg/kg or 30 mg/kg without signs of neurological deficit)” and the minimal effective dose is below 100 mg/kg. The “inhibition” value in the series on Sigma is reported as “inhibit selectively”.

Turning to `COc1ccc(NC(C)c2ccncc2)cc1` (stereo not drawn) [Compound 7, 1-(4-Methoxyanilino)-1-(4-pyridyl)-ethan], in the series on MES and scMet seizures, the “ASP classification (Table 8)” value is “I (They demonstrate anticonvulsant activity in either the MES test or the scMet test, or both at doses of 100 mg/kg or 30 mg/kg without signs of neurological deficit)” and the minimal effective dose is below 100 mg/kg. In series [4] (50 mg/kg, rat, p.o., MES), the “protection at 50 mg/kg (Table 8)” value is reported as 25-50%. Further, the responders at 50 mg/kg in series [4] was 25 to 50%.

For `CC(Nc1ccc(Cl)cc1)c1cccnc1` (stereo not drawn) [Compound 9, 1-(4-Chloroanilino)-1-(3-pyridyl)-ethan], the “activity at the [3H]TCP-binding receptor sites / PCP receptors (in words)” value with PCF is on record as “no activity”. Moreover, the “activity at the [3H]MK-801-binding receptor sites (in words)” value with MK-801 is recorded as “no activity”. Moreover, the minimal effective dose in the series on MES and scMet seizures is below 100 mg/kg. Also, the “inhibition” value with Sigma is reported as “inhibit selectively”. Further, the responders at 50 mg/kg in [4] lay within 25 to 75%.

For `Clc1ccc(NCc2ccncc2)cc1Cl` [Compound 10, 1-(3,4-Dichloroanilino)-1-(4-pyridyl)-methan], the “activity at the [3H]TCP-binding receptor sites / PCP receptors (in words)” value in the series with PCF is “no activity”. Moreover, the “activity at the [3H]MK-801-binding receptor sites (in words)” value in the series with MK-801 is reported as “no activity”. In addition, the minimal effective dose with MES and scMet seizures is below 100 mg/kg. Also, the “inhibition” value in the series with Sigma is on record as “inhibit selectively”. The responders at 50 mg/kg in [4] came to 50%.

With `Clc1cccc(NCc2ccncc2)c1` [Compound 12, 1-(3-Chloroanilino)-1-(4-pyridyl)-methan], the “activity at the [3H]TCP-binding receptor sites / PCP receptors (in words)” value in the series on PCF is “no activity”. Further, the “activity at the [3H]MK-801-binding receptor sites (in words)” value with MK-801 is on record as “no activity”. The minimal effective dose in the series with MES and scMet seizures is below 100 mg/kg. Besides, in the series on Sigma, the “inhibition” value was “inhibit selectively”. The responders at 50 mg/kg in [4] was above 50%.

Turning to `Brc1ccc(NCc2ccncc2)cc1` [Compound 13, 1-(4-Bromoanilino)-1-(4-pyridyl)-methan], in the series with PCF, the “activity at the [3H]TCP-binding receptor sites / PCP receptors (in words)” value is given as “no activity”. Further, the “activity at the [3H]MK-801-binding receptor sites (in words)” value in the series on MK-801 is “no activity”. Also, the minimal effective dose in the series on MES and scMet seizures was below 100 mg/kg. Further, the “inhibition” value in the series on Sigma is “inhibit selectively”. For the same compound, the responders at 50 mg/kg in series [4] is above 50%.

Regarding `Fc1ccc(NCc2ccncc2)cc1` [Compound 14], the minimal effective dose in the series with MES and scMet seizures is below 100 mg/kg. Also, in [4], the responders at 50 mg/kg was 25%.

Regarding `Cc1ccc(NCc2ccncc2)cc1` [Compound 15, 1-(4-Methylanilino)-1-(4-pyridyl)-methan], the minimal effective dose in the series on MES and scMet seizures was below 100 mg/kg.

Take `COc1ccc(NCc2ccncc2)cc1` [Compound 16, 1-(4-Methoxyanilino)-1-(4-pyridyl)-methan]: the minimal effective dose in the series with MES and scMet seizures is below 100 mg/kg.

For the compound `c1ccc(N2N=NCC2c2ccncc2)cc1` (stereo not drawn) [H, reference compound], the “ASP classification (Table 8)” value with MES and scMet seizures was “II (Class II compounds show anticonvulsant activity at doses greater than 100 mg/kg or show activity at 100 mg/kg which is not reinforced by similar activity at 300 mg/kg)”.

The compound `C[C@]12N[C@H](Cc3ccccc31)c1ccccc12` [MK-801, reference compound] showed an inhibition constant Ki at MK-801 (reference compound, [3H]MK-801) of 4.3 nM.

On PCF (reference compound, [3H]TCP), `c1ccc(C2(N3CCCCC3)CCCCC2)cc1` [PCP, phencyclidine, reference compound] returned an inhibitory constant (Ki) of 62.3 nM.

The values are drawn from patent US5648369A, “Aminoalkylpyridine compounds which are useful as anitconvulsant drugs, excitatory amino acid inhibitors and NMDA sigma receptor antagonists” (priority 1991, dated 1997).
